Values quoted from earlier work in PMC4282593 (Cancer chemotherapy and pharmacology, 2014).

System: recurrent/refractory NBs
Details: ref [23]

Structure (SMILES): C[C@]12O[C@H](C[C@]1(O)CO)n1c3ccccc3c3c4c(c5c6ccccc6n2c5c31)CNC4=O [lestaurtinib]
- patients with durable responses (8/16 patients treated at a biologically effective dose): 50%
- side effects (Phase 1 clinical trial in NB patients): limited to mild, including reversible liver transaminase elevations
- duration of durable responses, on average (patients treated at a biologically effective dose): more than 10 months
